We go through three molecules from publication PMC9736291 (International Journal of Molecular Sciences, 2022).

Read-outs that look alike come from different tables or passages of the source.

Series [1] can be described thus: in vitro. Particulars: Atp1a1^S/S (gene-edited), mouse, brain homogenate.
Series [2] deals with human MDR1 (P-glycoprotein, ABCB1) (Homo sapiens, UniProt P08183). As to the kind of experiment: in vitro. The settings on record: dog; for Papp A→B: MDCK-MDR1, Papp A–B; for Papp B→A: MDCK-MDR1, Papp B–A.
A further series in a line: in vivo. The settings on record: Atp1a1^S/S (gene-edited), mouse.
Series [3] is described as follows: in vitro. The settings on record: both, human, brain homogenate.
Series [4] has as its target T1, human MDR1 (Homo sapiens, UniProt P08183). Particulars: dog, MDCK-MDR1.
Series [5] in a line: in vitro. The settings on record: guinea pig, plasma.
A further series relates to HeLa cells. Particulars: cited from earlier work.
Series [6] can be described thus: in vitro. The settings on record: guinea pig, brain homogenate.
For series [7], the system named is PrP^C. The series is classed as cell-based, human. Particulars: differentiated T98G cells.
Series [8] relates to PrP^C. The series is classed as cell-based, human.
For series [9] the following is noted: cited from earlier work.
Series [10] has as its system ReN VM cells. Particulars: human.
Series [11] concerns PrP^C. Type of series: cell-based, human. Particulars: ReN VM ATP1A1^r/r cells whose ATP1A1 does not bind CGs.
For series [12] the following is noted: Atp1a1^S/S (gene-edited), mouse, in vivo; for Abrain / Cbrain (mean total brain concentration) / Cu,brain (unbound brain concentration): 0.6 mg/kg.
In series [13] the target is T1, human MDR1. The arrangement: host or cells: MDCKII (canine kidney) cells, canine MDR1 deleted, human MDR1 gene inserted; method as in PMID 22906709, PMID 15620875. Particulars: published values; cited from earlier work.
For series [14] the following is noted: in vivo, po; cited from earlier work.
For series [15] the following is noted: in vivo, iv; cited from earlier work.
The test system of series [16] is ReN VM cells. The settings on record: cited from earlier work.

human MDR1 (P-glycoprotein, ABCB1), sequence (P08183 whole entry): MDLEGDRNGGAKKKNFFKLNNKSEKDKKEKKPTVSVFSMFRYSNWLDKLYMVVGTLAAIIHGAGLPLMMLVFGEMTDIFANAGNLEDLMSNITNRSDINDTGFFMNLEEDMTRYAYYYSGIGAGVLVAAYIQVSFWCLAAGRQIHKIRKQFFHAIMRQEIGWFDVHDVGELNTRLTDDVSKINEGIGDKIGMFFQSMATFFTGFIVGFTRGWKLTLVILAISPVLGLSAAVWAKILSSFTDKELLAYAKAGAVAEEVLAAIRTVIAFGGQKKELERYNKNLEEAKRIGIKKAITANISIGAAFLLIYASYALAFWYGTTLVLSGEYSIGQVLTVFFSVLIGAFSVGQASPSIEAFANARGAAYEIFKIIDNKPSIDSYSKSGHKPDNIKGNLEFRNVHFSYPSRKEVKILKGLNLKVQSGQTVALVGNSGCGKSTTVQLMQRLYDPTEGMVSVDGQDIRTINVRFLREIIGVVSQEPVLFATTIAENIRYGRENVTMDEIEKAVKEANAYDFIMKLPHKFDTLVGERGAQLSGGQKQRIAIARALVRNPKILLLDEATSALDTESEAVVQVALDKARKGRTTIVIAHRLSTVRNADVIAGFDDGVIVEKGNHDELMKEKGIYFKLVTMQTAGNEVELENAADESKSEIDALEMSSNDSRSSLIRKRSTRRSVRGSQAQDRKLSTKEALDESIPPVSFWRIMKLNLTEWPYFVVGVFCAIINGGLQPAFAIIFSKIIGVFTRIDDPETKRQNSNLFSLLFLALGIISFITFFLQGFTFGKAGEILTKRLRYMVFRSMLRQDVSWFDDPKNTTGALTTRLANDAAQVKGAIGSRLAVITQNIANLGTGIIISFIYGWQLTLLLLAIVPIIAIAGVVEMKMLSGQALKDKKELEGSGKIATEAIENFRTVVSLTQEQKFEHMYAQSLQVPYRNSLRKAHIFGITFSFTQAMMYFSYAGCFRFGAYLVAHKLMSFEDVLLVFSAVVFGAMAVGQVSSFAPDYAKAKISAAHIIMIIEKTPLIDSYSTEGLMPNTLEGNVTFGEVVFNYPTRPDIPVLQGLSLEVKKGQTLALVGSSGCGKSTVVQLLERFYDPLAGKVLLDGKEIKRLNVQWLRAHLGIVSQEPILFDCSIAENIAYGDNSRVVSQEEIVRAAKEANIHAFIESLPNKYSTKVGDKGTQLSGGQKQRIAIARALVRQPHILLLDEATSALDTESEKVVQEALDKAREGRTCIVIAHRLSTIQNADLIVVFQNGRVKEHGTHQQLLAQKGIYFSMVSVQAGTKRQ
T1 sequence (P08183 whole entry): as above

In the case of `COC1CC(OC2CCC3(C)C(CCC4C3CCC3(C)C(C5=CC(=O)OC5)C(OC(C)=O)CC43O)C2)OC(C)C1=O` (centres unmarked) [KDC203, 4′-dehydro-oleandrin], the “estimated total brain concentration attainable in human brains” value is given as 27 nM and the “estimated unbound concentration attainable in human brains” value was approximately 10 nM. Further, in the series “in vitro [1]”, the unbound share (fraction unbound) was 0.33. In series [2], the Papp A→B is 11.6 ×10⁻⁶ cm/s and the Papp B→A is 41.9 ×10⁻⁶ cm/s. The same molecule displayed a Kp uu in the series “in vivo” of 0.44. The free fraction (fraction unbound) in “in vitro [3]” came out at 0.395. At human MDR1 [4], the “Papp A–B” value was 7.24, the “Papp B–A” value worked out at 70.60 and the “reduction of extrusion on addition of Zosuquidar” value is recorded as “more than 50%”. The molecule further registered a fraction unbound in the series “in vitro [5]” of 0.359. Besides, the IC50 with HeLa cells is 46 nM. The fraction unbound in the series “in vitro [6]” was determined as 0.294. The “reduction in PrP^C levels” value in the series with PrP^C [7] is recorded as “recapitulate the KDC203-dependent reduction in PrP^C levels”. The “maximum reduction in steady-state PrP^C levels (3F4-reactive signals)” value in the series on PrP^C [8] is listed as 84%. The “oral effectiveness relative to oleandrin (lethal doses oral versus intravenous), higher by” value in [9] (cats) is listed as “approximately 20%”. The “oral toxicity relative to oleandrin” value in series [9] (in vivo, po) is listed as “almost twofold lower”. In the series on ReN VM cells [10], the “concentrations at which cytotoxicity observed” value is reported as more than 40 nM and the “toxicity threshold (concentration at which all three cellular health indicators dropped to 75% of untreated)” value was 46 nM. For the same molecule, in the series on PrP^C [11], the “reduction in PrP^C levels” value is reported as “no KDC203-mediated reduction in PrP^C levels was observed”. For the same molecule, the “Vu,brain” value in [12] amounted to 2.90 mL/g brain. Moreover, in series [12] (sc), the “brain levels relative to heart levels” value was 3.5 fold, the “total brain concentration of KDC203 relative to oleandrin” value is on record as 1.5 fold, the Abrain stood at 16.75 ng/g brain and the “Cbrain (mean total brain concentration)” value worked out at 30.46 nM. The “Cu,brain (unbound brain concentration)” value in [12] (sc) is reported as 10.05 nM.
As for `C[C@H]1O[C@@H](O[C@H]2[C@@H](O)C[C@H](O[C@H]3[C@@H](O)C[C@H](O[C@H]4CC[C@@]5(C)[C@H](CC[C@@H]6[C@@H]5C[C@@H](O)[C@]5(C)[C@@H](C7=CC(=O)OC7)CC[C@]65O)C4)O[C@@H]3C)O[C@@H]2C)C[C@H](O)[C@@H]1O` [digoxin], the “PappA-B, published value” on human MDR1 [13] is 0.5 ×10⁻⁶ cm/s.
In the case of `CO[C@H]1C[C@H](O[C@H]2CC[C@@]3(C)[C@H](CC[C@@H]4[C@@H]3CC[C@]3(C)[C@@H](C5=CC(=O)OC5)[C@@H](OC(C)=O)C[C@]43O)C2)O[C@@H](C)[C@@H]1O` [oleandrin, reference compound], the “estimated total brain concentration attainable in human brains” value was not above 18 nM. The molecule further came in with a fraction unbound in “in vitro [1]” of 0.24. Further, in series [2], the Papp A→B amounted to 7.06 ×10⁻⁶ cm/s and the Papp B→A turned out to be 146 ×10⁻⁶ cm/s. Moreover, in the series “in vivo”, the Kp uu was determined as 0.27. In the series “in vitro [3]”, this molecule returned an unbound share (fraction unbound) of 0.316. At human MDR1 [4], the “Papp B–A” value is given as 145.79. For the same molecule, in the series “in vitro [5]”, the unbound share (fraction unbound) came to 0.219. This molecule also had a fraction unbound in the series “in vitro [6]” of 0.219. The plasma levels in [14] was 3 nM. Further, the “cerebrum levels relative to plasma levels” value in series [15] is listed as 6 fold. Besides, the “toxicity threshold (concentration at which all three cellular health indicators dropped to 75% of untreated)” value in the series on ReN VM cells [10] came to 2.7 nM. In the series with ReN VM cells [16], the “concentrations at which toxic” value is reported as “exceeding 4 nM”. Besides, the “Vu,brain” value in series [12] was 3.98 mL/g brain. For the same molecule, in series [12] (sc), the Abrain was determined as 10.58 ng/g brain, the “Cbrain (mean total brain concentration)” value turned out to be 19.23 nM and the “Cu,brain (unbound brain concentration)” value is on record as 4.61 nM.
